Patent US20120165319A1, “INHIBITORS OF INTERLEUKIN-1 BETA CONVERTING ENZYME” (VERTEX PHARMACEUTICALS INCORPORATED, priority 1995, published 2012)
Values joined by “and” are separate entries in the source; they are usually repeats but may differ in a detail not shown here. Equal entries are not always repeated. Where two headings read alike, the source gives them in different places.

System: IL-1β production, LPS-challenged mice
Test: In vivo acute assay for efficacy as anti-inflammatory agent: LPS-induced IL-1β production in mice
Parameters: species or system mouse
Settings: for inhibition at 50 mg/kg: Mus musculus, po, read-out: percent inhibition of IL-1β production; for inhibition at 50 mg/kg / Inhibition of IL-1β Production, compound administered 0 hr relative to LPS challenge / Inhibition of IL-1β Production, compound administered +1 hr relative to LPS challenge / Inhibition of IL-1β Production, compound administered −1 hr relative to LPS challenge / Inhibition of IL-1β Production, compound administered −2 hr relative to LPS challenge / percent inhibition of IL-1β production: LPS challenged mice, 50 mg/kg; for inhibition at 50 mg/kg / percent inhibition of IL-1β production: compound PO; for Inhibition of IL-1β Production, compound administered 0 hr relative to LPS challenge / Inhibition of IL-1β Production, compound administered +1 hr relative to LPS challenge / Inhibition of IL-1β Production, compound administered −1 hr relative to LPS challenge / Inhibition of IL-1β Production, compound administered −2 hr relative to LPS challenge / POS Inhibition: PO; for Inhibition of IL-1β Production, compound administered 0 hr relative to LPS challenge / Inhibition of IL-1β Production, compound administered +1 hr relative to LPS challenge / Inhibition of IL-1β Production, compound administered −1 hr relative to LPS challenge / Inhibition of IL-1β Production, compound administered −2 hr relative to LPS challenge: * = values obtained in subsequent assays (Table 4); for IP % Inhibition / POS Inhibition: % inhibition of IL-β production, LPS-challenged mice, 50 mg/kg (Table 3)
Method in brief: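 Serum IL-1β was measured by ELISA 7 h after an IP dose of 20 mg/kg LPS in CD1 mice, n=6 per group. Compounds in olive oil/DMSO/ethanol 90:5:5 were injected IP 1 h post-LPS (some analogs were dosed at challenge), and separate groups received 50 mg/kg by oral gavage.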

[1] = 1 h, administered +1 h relative to time of LPS challenge
[2] = 0 h, administered 0 h relative to time of LPS challenge
[3] = 2 h, administered −2 h relative to time of LPS challenge

Row | SMILES | inhibition at 50 mg/kg [2] [%] | inhibition at 50 mg/kg [3] [%] | Inhibition of IL-1β Production, compound administered 0 hr relative to LPS challenge | Inhibition of IL-1β Production, compound administered +1 hr relative to LPS challenge | Inhibition of IL-1β Production, compound administered −1 hr relative to LPS challenge | Inhibition of IL-1β Production, compound administered −2 hr relative to LPS challenge | other results
1 | O=C[C@H](CC(=O)O)NC(=O)CN1C(=O)[C@@H](NC(=O)c2ccccc2)CN(C(=O)CO)c2ccccc21 [Compound 668, (3S)-3-[(3S)-2-Oxo-3-benzoylamino-5-(2-hydroxy)acetyl-2,3,4,5-tetrahydro-1H-1,5-benzodiazepine-1-acetylamino]-4-oxo-butyric acid] | – | – | – | – | – | – | inhibition at 50 mg/kg [1]: 53%
2 | COc1c(Cl)cc(C(=O)N[C@H]2CCC(=O)N3CCC[C@@H](C(=O)N[C@H](C=O)CC(=O)O)N3C2=O)cc1Cl [Compound 214m] | 17 | 0 | – | – | – | – | –
3 | CCOC(=O)C[C@H](NC(=O)[C@@H]1CCCN2C(=O)CC[C@H](NC(=O)c3ccccc3)C(=O)N12)C(OCC)OCC [Compound 2100b] | – | – | 47% | 26% | 0% | 0% | –
4 | O=C[C@H](CC(=O)O)NC(=O)[C@@H]1CCCN2C(=O)CC[C@H](NC(=O)c3cc(Cl)c(O)c(Cl)c3)C(=O)N12 [Compound 214k, [3S(1S,9S)]3-(9-(3,5-Dichloro-4-hydroxybenzoyl)amino-6,10-dioxo-1,2,3,4,7,8,9,10-octahydro-6H-pyridazino[1,2-a][1,2]diazepine-1-carboxamido)-4-oxobutanoic acid] | 31 | 12 | – | – | – | – | –
5 | CC(C)(C)OC(=O)C[C@@H](C=O)NC(=O)[C@@H]1CCCN2C(=O)CC[C@H](NC(=O)c3ccccc3)C(=O)N12 [Compound 302, [3S(1S,9S)3-(9-Benzoylamino-6,10-dioxo-1,2,3,4,7,8,9,10-octahydro-6H-pyriazino-[1,2-a][1,2]diazapine-1-carboxamido)-amino]-4-oxobutanoic acid tert-butyl ester] | – | – | 21% | 26% | 27% | 0% | –
6 | CC(C)OC1OC(=O)C[C@@H]1NC(=O)[C@@H]1CCCN2C(=O)CC[C@H](NC(=O)c3ccccc3)C(=O)N12 (stereo partly drawn) [Compound 2100a, [1S,9S(2RS,3S)]9-Benzoylamino-6,10-dioxo-1,2,3,4,7,8,9,10-octahydro-N-(2-isopropoxy-5-oxo-tetrahydro-furan-3-yl)-6H-pyridazino-[1,2-a][1,2]diazepine-1-carboxamide] | – | – | 67% | 58% | 71% | 8% | –
7 | COC(=O)C[C@H](NC(=O)[C@@H]1CCCN2C(=O)CC[C@H](NC(=O)c3ccccc3)C(=O)N12)C(OC)OC [Compound 2100c] | – | – | 85% | 40% | 0% | 0% | –
8 | CN(C)c1cccc(C(=O)N[C@H]2CCC(=O)N3CCC[C@@H](C(=O)N[C@H](C=O)CC(=O)O)N3C2=O)c1 [Compound 470] | 36 | 0 | – | – | – | – | –
9 | O=C1C[C@H](NC(=O)[C@@H]2CCCN3C(=O)CC[C@H](NC(=O)C(=O)c4ccccc4)C(=O)N23)C(OCc2ccccc2)O1 (stereo partly drawn) [Compound 2001, [1S,9S(2RS,3S)]9-Benzoylformylamino-6,10-dioxo-1,2,3,4,7,8,9,10-octahydro-N-(2(R,S)-benzyloxy-5-oxotetrahydrofuran-3-yl)-6H-pyridazino[1,2-a][1,2]-diazepine-1-carboxamide] | 58 | 64 | ~57% and 58* % | ~54% and 55* % | ~62% and 62* % | ~63% and 64* % | inhibition at 50 mg/kg [1]: 55%; inhibition at 50 mg/kg (1 h, administered −1 h relative to time of LPS challenge): 62%
10 | O=C[C@H](CC(=O)O)NC(=O)[C@@H]1CCCN2C(=O)CC[C@H](NC(=O)c3ccc4nc[nH]c4c3)C(=O)N12 [Compound 434] | 63 | 0 | – | – | – | – | IP % Inhibition: 74%; POS Inhibition: 80%; inhibition at 50 mg/kg [1]: 80%
11 | Cc1cc(C(=O)N[C@H]2CCC(=O)N3CCC[C@@H](C(=O)N[C@H](C=O)CC(=O)O)N3C2=O)cc(C)c1O [Compound 214w] | – | – | – | – | – | – | percent inhibition of IL-1β production (administered 0 h relative to time of LPS challenge): 91%; percent inhibition of IL-1β production (administered −2 h relative to time of LPS challenge): 11%
12 | O=C[C@H](CC(=O)O)NC(=O)[C@@H]1CCCN2C(=O)CC[C@H](NC(=O)c3cc4ccsc4s3)C(=O)N12 [Compound 442] | – | – | – | – | – | – | IP % Inhibition: 0%; POS Inhibition: 10%
13 | CC(=O)N1C[C@H](NC(=O)c2cc(Cl)c(O)c(Cl)c2)C(=O)N(CC(=O)N[C@H](C=O)CC(=O)O)c2ccccc21 [Compound 656, (3S)-3-[(3S)-2-Oxo-3-(3,5-dichloro, 4-hydroxybenzoyl)amino-5-acetyl-2,3,4,5-tetrahydro-1H-1,5-benzodiazepine-1-acetylamino-]4-oxo-butyric acid] | 16 | 31 | – | – | – | – | –
14 | O=C[C@H](CC(=O)O)NC(=O)CN1C(=O)[C@@H](NC(=O)c2cc(Cl)c(O)c(Cl)c2)CN(C(=O)CO)c2ccccc21 [Compound 662, (3S)-3-[(3S)-2-Oxo-3-(3,5-dichloro-4-hydroxybenzoyl)amino-5-(2-hydroxy)acetyl-2,3,4,5-tetrahydro-1H-1,5-benzodiazepine-1-acetylamino]-4-oxo-butyric acid] | 75 | 41 | – | – | – | – | –
15 | CN(C)c1ccc(C(=O)N[C@H]2CCC(=O)N3CCC[C@@H](C(=O)N[C@H](C=O)CC(=O)O)N3C2=O)cc1 [Compound 471] | 34 | 0 | – | – | – | – | –
16 | CCOC1OC(=O)C[C@@H]1NC(=O)[C@@H]1CCCN2C(=O)CC[C@H](NC(=O)c3ccccc3)C(=O)N12 (stereo partly drawn) [Compound 2100e, [1S,9S(2RS,3S)]9-Benzoylamino-6,10-dioxo-1,2,3,4,7,8,9,10-octahydro-N-(2-ethoxy-5-oxo-tetrahydro-furan-3-yl)-6H-pyridazino[1,2-a][1,2]-diazepine-1-carboxamide] | – | – | 94% | 66% | 54% | 49% | –
17 | CC(=O)Nc1ccc(C(=O)N[C@H]2CCC(=O)N3CCC[C@@H](C(=O)N[C@H](C=O)CC(=O)O)N3C2=O)cc1Cl [Compound 214l, [3S(1S,9S)]3-(9-(3-Chloro-4-acetamidobenzoyl)amino-6,10-dioxo-1,2,3,4,7,8,9,10-octahydro-6H-pyridazino[1,2-a][1,2]diazepine-1-carboxamido)-4-oxobutanoic acid] | 54 | 0 | – | – | – | – | –
18 | O=C[C@H](CC(=O)O)NC(=O)[C@@H]1CCCN2C(=O)CC[C@H](NC(=O)c3ccc(Cl)cc3)C(=O)N12 [Compound 416] | – | – | – | – | – | – | IP % Inhibition: 39%; POS Inhibition: 52%
